{"source": "patent US6337340B1", "about": "“Carboxylic acids and isosteres of heterocyclic ring compounds having multiple heteroatoms for vision and memory disorders” (GPI NIL Holdings, Inc., priority 1998, dated 2002)", "key": {"[1]": {"test": "Clearance (Table V comments)", "type": "in vitro ADME"}, "[2]": {"test_system": "retinal ganglion cell axons", "test": "Protection of retinal ganglion cell axons from degeneration following optic nerve transection (Table V)", "type": "in vivo, rat", "details": "± SEM", "source_text": "Efficacy of representative compounds from different immunophilin ligand series in protecting retinal ganglion cell axons from degeneration following optic nerve transection is set forth in Table V."}, "FKBP12": {"target": "FKBP12 (Homo sapiens, UniProt P62942)", "sequence (P62942 whole entry, species assumed)": "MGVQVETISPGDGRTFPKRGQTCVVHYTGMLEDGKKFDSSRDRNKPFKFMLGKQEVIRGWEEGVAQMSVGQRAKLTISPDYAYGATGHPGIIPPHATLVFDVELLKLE", "test": "Ki Test Procedure: inhibition of peptidyl-prolyl isomerase (rotamase) activity, chymotrypsin-coupled assay", "type": "biochemical", "details": "apparent Ki; read-out: Ki rotomase", "quoted_text": "The inhibition of the prolyl peptidyl cis-trans isomerase activity of FKBP may be measured as an indicator of this affinity.\nThese values are obtained as apparent Ki's.\nThe cis-trans isomerization of an alanine-proline bond in a model substrate, N-succinyl-Ala-Ala-Pro-Phe-p-nitroanilide, is monitored spectrophotometrically in a chymotrypsin-coupled assay, which releases para-nitroanilide from the trans form of the substrate. The inhibition of this reaction caused by the addition of different concentrations of inhibitor is determined, and the data is analyzed as a change in first-order rate constant as a function of inhibitor concentration to yield the apparent Ki values.\nIn a plastic cuvette are added 950 ml of ice cold assay buffer (25 mM HEPES, pH 7.8, 100 mM NaCl), 10 ml of FKBP (2.5 mM in 10 mM Tris-Cl pH 7.5, 100 mM NaCl, 1 mM dithiothreitol), 25 ml of chymotrypsin (50 mg/ml in 1 mM HCl) and 10 ml of test compound at various concentrations in dimethyl sulfoxide. The reaction is initiated by the addition of 5 ml of substrate (succinyl-Ala-Phe-Pro-Phe-para-nitroanilide, 5 mg/ml in 2.35 mM LiCl in trifluoroethanol).\nThe absorbance at 390 nm versus time is monitored for 90 seconds using a spectrophotometer and the rate constants are determined from the absorbance versus time data files."}, "[3]": {"test_system": "retinal ganglion cells and optic nerve axons", "test": "In vivo retinal ganglion cell and optic nerve axon tests after optic nerve transection", "set-up": "species or system Sprague Dawley rats", "details": "90 days after transection", "source_text": "A second groups received the same neuroimmunogphilin FKBP ligand dose for 28 days.\nAll eyes and optic nerves stumps were removed."}, "retinal ganglion cells": {"test_system": "retinal ganglion cells", "test": "Retinal ischemia by raised intraocular pressure", "type": "in vivo, rat", "source_text": "Retinal ganglion cells were retrogradely labeled in adult rate by bilateral injection of fluorogold in their lateral geniculate nuclei. Labeled ganglion cells in the normal rat retina appear as white profiles against the dark background (FIG. 1A). Complete retinal ischemia was produced by infusing normal saline solution into the retinal vitreous cavity of each eye until the intraocular pressure exceeded arterial blood pressure. 28 days after the ischemic episode extensive degeneration of retinal ganglion cell was evidenced by massive reduction in the density of fluorogold labeled cells (FIG. 1B).\nOptic nerves from vehicle treated cases examined 28 days after a 1 hour retinal ischemic episode are characterized by a decreased density of optic nerve axons and the appearance of numerous degenerating myelin figures (bright white filled circles)."}, "retina": {"test_system": "retina", "test": "Streptozotocin induced diabetes, retinal neovascularization and neuron loss", "type": "in vivo"}, "[4]": {"test_system": "streptozotocin-induced diabetic rat", "test": "Streptozotocin-induced diabetic sensory neuropathy, hot plate and tail flick", "type": "in vivo, Male Wistar rats", "details": "lesioned animals treated for 6 weeks at 10 mg/kg s.c.", "experimental": "The procedure involved using Male Wistar rats which were given a single injection of streptozotocin (65 mg/kg i.v.). Blood glucose levels were determined weekly for the first three weeks and on the last week of the experiment. Animals were evaluated weekly for signs of sensory neuropathy using the conventional hot plate and tail flick apparatus test procedures."}, "aged rodents": {"test_system": "aged rodents", "test": "Morris watermaze spatial learning and memory in aged rodents", "type": "in vivo, C57BL/6N-Nia mice", "details": "daily 10 mg/kg", "source_text": "The Morris watermaze is widely used for assessing spatial memory formation and retention in experimental animals. The test depends on the animal's ability to utilize spatial visual information in order to locate a submerged escape platform in a water tank. It is important that the tank itself be as devoid of specific visual features as possible—thus, it is always circular in shape, the sides are kept smooth and in uniform dull colors, and the water is rendered opaque with nontoxic watercolor pigment or powdered milk. This is to ensure that the animal navigates only by the use of more distant visual cues, or by the use of intra-maze cues specifically provided by the experimenter.\nThe animals' path, speed, and swim time are tracked with a ceiling camera for later computerized analysis. Over the course of several successive trials, spatial learning can therefore be defined as a drop of distance swum, or time elapsed, from placement in the tank until escape onto the invisible platform. […]\nRetention testing began after 3 weeks of dosing using the same methods as the acquisition phase. Swim Distances (cm) were analyzed in a 7×5 ANOVA including Groups and Blocks (1-5) as factors in the analysis, treating Blocks as a repeated measure."}, "[5]": {"test_system": "retinal ganglion cells and optic nerve axons", "test": "In vivo retinal ganglion cell and optic nerve axon tests after optic nerve transection", "set-up": "species or system Sprague Dawley rats", "details": "for ON axon Count: axonal density multiplied by ON area; for Distal optic nerve myelin basic protein Density: shrinkage: cross sectional area vs sham"}, "[6]": {"details": "28 day treatment beginning 8 weeks after onset of streptozotocin induced diabetes"}, "[7]": {"details": "GPI 1046 first 14 days, 90 days after transection"}, "[8]": {"details": "ONT, GPI 1046 14 days, 90 days after transection"}, "[9]": {"details": "ONT, GPI 1046 28 days, 90 days after transection"}}, "note": "Marks after values point to notes of the source that are not given here."}
{"compound": "CCC(C)(C)C(=O)C(=O)N1CCCCC1C(=O)OC(CCc1ccccc1)CCc1ccccc1", "note": "(stereo not shown) [E]", "values": [{"measurement": "Clearance", "setting": "[1]", "value": 41.8, "unit": "µL/min"}, {"measurement": "RT97+ RGC axon density 11 days after ON transection (36 ON axon rescued)", "setting": "[2]", "value": "56.6% ± 9.4% SEM"}]}
{"compound": "O=C(SCCCc1ccccc1)[C@@H]1CCCN1S(=O)(=O)Cc1ccccc1", "note": "[C]", "values": [{"measurement": "Clearance", "setting": "[1]", "value": 31.1, "unit": "µL/min"}, {"measurement": "RT97+ RGC axon density 11 days after ON transection (36 ON axon rescued)", "setting": "[2]", "value": "60.4% ± 3.1% SEM"}]}
{"compound": "O=C(SCCCc1ccccc1)[C@@H]1CCCN1C(=O)NC12CC3CC(CC(C3)C1)C2", "note": "[B]", "values": [{"measurement": "Clearance", "setting": "[1]", "value": 7, "unit": "µL/min"}, {"measurement": "RT97+ RGC axon density 11 days after ON transection (36 ON axon rescued)", "setting": "[2]", "value": "100.0% ± 5.2% SEM"}]}
{"compound": "CCC(C)(C)C(=O)C(=O)N1CCC[C@H]1C(=O)O", "note": "[L]", "values": [{"measurement": "Clearance", "setting": "[1]", "value": 5.2, "unit": "µL/min"}, {"measurement": "RT97+ RGC axon density 11 days after ON transection (36 ON axon rescued)", "setting": "[2]", "value": "7.8% ± 3.0% SEM"}]}
{"compound": "CN(C)C(=O)N1CCC[C@H]1C(=O)SCCCc1ccccc1", "note": "[N]", "values": [{"measurement": "Clearance", "setting": "[1]", "value": 21.9, "unit": "µL/min"}]}
{"compound": "CCC(C)(C)C(=O)C(=O)N1CCCC[C@H]1C(=O)SCCC(c1ccccc1)c1ccccc1", "note": "[K]", "values": [{"measurement": "Clearance", "setting": "[1]", "value": 4.5, "unit": "µL/min"}]}
{"compound": "GPI 1046", "values": [{"measurement": "Ki", "setting": "FKBP12", "value": 7.5, "unit": "nM"}, {"measurement": "Clearance", "setting": "[1]", "value": 63.8, "unit": "µL/min"}, {"measurement": "RT97+ RGC axon density 11 days after ON transection (36 ON axon rescued)", "setting": "[2]", "value": "60.5% ± 3.9 SEM"}, {"measurement": "preservation of axons of protected neurons in the proximal stump", "setting": "[3]; Example 14, 10 mg/kg/day s.c. 28 days, RT97 immunohistochemistry", "value": "preserved the axons of virtually all protected neurons"}, {"measurement": "fascicular pattern of myelin labeling in the distal stump", "setting": "[3]; GPI 1046 first 28 days", "value": "dramatic protection of the fascicular pattern of myelin labeling"}, {"measurement": "pattern of myelin degeneration in the proximal stump (myelin basic protein immunohistochemistry)", "setting": "[3]; GPI 1046 first 28 days", "value": "dramatic preservation of the fascicular staining pattern"}, {"measurement": "% surviving RGCs with ON axons", "setting": "[3]; ONT, GPI 1046 28 days", "value": 81.4, "unit": "%"}, {"measurement": "ON head area (% sham)", "setting": "[3]; ONT, GPI 1046 28 days", "value": 95, "unit": "%*"}, {"measurement": "Spared RGC population", "setting": "[3]; ONT, GPI 1046 28 days", "value": "28,096*"}, {"measurement": "increased ON axon density", "setting": "[3]; ONT, GPI 1046 28 days, adjusted for optic nerve diameter", "value": 5.0, "unit": "X"}, {"measurement": "Distal optic nerve myelin basic protein Density: myelin preservation", "setting": "[3]; ONT, GPI 1046 28 days, cross sectional area multiplied by myelin density", "value": "99% myelin % myelin preservation"}, {"measurement": "Proximal optic nerve myelin basic protein Density", "setting": "[3]; ONT, GPI 1046 28 days, ± SEM", "value": "70 ± 6.3", "unit": "SEM % recovery"}, {"measurement": "protection of fluorogold labeled retinal ganglion cells", "setting": "retinal ganglion cells; 10 mg/kg s.c. 1 hour prior and 10 mg/kg/day for next four days, 28 days after ischemic episode", "value": "noticeable protection of a large proportion of the vulnerable ganglion cell population"}, {"measurement": "density of degenerating myelin figures in optic nerve", "setting": "retinal ganglion cells; 28 days after 1 hour retinal ischemic episode", "value": "dramatically decreased the density of degenerating myelin figures"}, {"measurement": "protection of optic nerve axons from ischemic degeneration", "setting": "retinal ganglion cells; 28 days after 1 hour retinal ischemic episode, toluidine blue staining", "value": "protected the majority of optic nerve axons from degeneration"}, {"measurement": "loss of neurons in the INL and GCL", "setting": "retina; 28 day treatment beginning 8 weeks after onset of diabetes, vs streptozotocin/vehicle controls", "value": "appeared to decrease the loss of neurons in both the INL and GCL"}, {"measurement": "neovascularization in the PR, ONL, OPL and INL", "setting": "retina; [6]", "value": "reduced neovascularization"}, {"measurement": "neuronal loss in the ONL", "setting": "retina; [6]", "value": "did not appear to protect against neuronal loss in the ONL"}, {"measurement": "hot plate and tail flick latency", "setting": "[4]", "value": "improvement in latency"}, {"measurement": "spatial memory performance (swim distance, retention testing)", "setting": "aged rodents; aged impaired mice, retention testing after 3 weeks of dosing", "value": "significantly enhanced spatial memory performance"}, {"measurement": "difference between young and aged impaired GPI-1046 treated groups, retention phase", "setting": "aged rodents; F1.69=3.09, P=0.08", "value": "no longer any statistically significant difference"}, {"measurement": "ganglion cells population spared (perikaryal neuroprotection)", "setting": "[5]; Example 14, 10 mg/kg/day s.c. 28 days, sacrificed 90 days after transection", "value": 25, "unit": "%"}, {"measurement": "density of myelin in the distal stump", "setting": "[5]; [7]", "value": "slightly increase the density of myelin"}, {"measurement": "pattern of myelin degeneration in the proximal stump (myelin basic protein immunohistochemistry)", "setting": "[5]; [7]", "value": "did not alter the pattern of myelin degeneration"}, {"measurement": "shrinkage of the distal stump", "setting": "[5]; [7]", "value": "did not protect against shrinkage"}, {"measurement": "cross sectional shrinkage of the distal stump", "setting": "[5]; GPI 1046 first 28 days, 90 days after transection", "value": "prevented cross sectional shrinkage"}, {"measurement": "% RGCs Rescued", "setting": "[5]; [8]", "value": 5.3, "unit": "%"}, {"measurement": "% surviving RGCs with ON axons", "setting": "[5]; [8]", "value": 33.6, "unit": "%"}, {"measurement": "ON head area (% sham)", "setting": "[5]; [8]", "value": 76, "unit": "%"}, {"measurement": "Spared RGC population", "setting": "[5]; [8]", "value": "20,275"}, {"measurement": "increased ON axon density", "setting": "[5]; ONT, GPI 1046 14 days, 90 days after transection, adjusted for optic nerve diameter", "value": 1.5, "unit": "X"}, {"measurement": "ON axon Count", "setting": "[5]; [8]", "value": 6820}, {"measurement": "Distal optic nerve myelin basic protein Density: myelin loss", "setting": "[5]; ONT, GPI 1046 14 days, 90 days after transection, cross sectional area multiplied by myelin density", "value": 47, "unit": "% loss"}, {"measurement": "Distal optic nerve myelin basic protein Density: shrinkage", "setting": "[5]; [8]", "value": 33, "unit": "% shrinkage"}, {"measurement": "ON Axon density", "setting": "[5]; ONT, GPI 1046 14 days, 90 days after transection, mean ± SEM RT97 labeled axons in 200 μm × 200 μm region", "value": "569 ± 23"}, {"measurement": "Proximal optic nerve myelin basic protein Density", "setting": "[5]; ONT, GPI 1046 14 days, 90 days after transection, ± SEM", "value": "1.6 ± 3.0", "unit": "SEM % recovery"}, {"measurement": "RGC Counts", "setting": "[5]; ONT, GPI 1046 28 days 10 mg/kg/day sc, 90 days after transection, mean density ± SEM of Fluoro-gold labeled RGC in 400 μm × 400 μm gridfields", "value": "67.9 ± 5.8"}, {"measurement": "ON axon Count", "setting": "[5]; [9]", "value": "22,861*"}, {"measurement": "Distal optic nerve myelin basic protein Density: shrinkage", "setting": "[5]; [9]", "value": 56, "unit": "% less % less shrinkage"}, {"measurement": "protection of optic nerve axons", "setting": "[5]; proximal stump, GPI 1046 first 14 days after transection, 90 days", "value": 5.3, "unit": "%"}]}
{"compound": "O=C(OCCCCc1ccccc1)[C@@H]1CCCCN1S(=O)(=O)Cc1ccccc1", "note": "[D]", "values": [{"measurement": "RT97+ RGC axon density 11 days after ON transection (36 ON axon rescued)", "setting": "[2]", "value": "58.4% ± 6.4% SEM"}]}
{"compound": "CCC(C)(C)C(=O)C(=O)N1CCS[C@H]1C(=O)OCCCc1cccnc1", "note": "[F]", "values": [{"measurement": "RT97+ RGC axon density 11 days after ON transection (36 ON axon rescued)", "setting": "[2]", "value": "55.1% ± 5.9% SEM"}]}
{"compound": "CCC(C)(C)C(=O)C(=O)N1CCC[C@H]1C(=O)CCCCc1cccnc1", "note": "[J]", "values": [{"measurement": "Clearance", "setting": "[1]", "value": 1.5, "unit": "µL/min"}]}
{"compound": "CCC(C)(C)C(=O)C(=O)N1CCC[C@H]1C(=O)SCCC(c1ccccc1)c1ccccc1", "note": "[M]", "values": [{"measurement": "Clearance", "setting": "[1]", "value": 12.5, "unit": "µL/min"}, {"measurement": "RT97+ RGC axon density 11 days after ON transection (36 ON axon rescued)", "setting": "[2]", "value": "−6.3% ± 3.9% SEM"}]}
